Drawing on US10172830B2, “Pyrazolone compounds having human neutrophil elastase inhibitory properties” (CHIESI FARMACEUTICI S.P.A., priority 2016, dated 2019), this text covers IC50 for 14 molecules.

This experiment deals with T1, human neutrophil elastase (HNE) (Homo sapiens, UniProt P08246).
T1 construct: purchased Sigma E8140
T1 sequence (P08246 30-247 limits assumed): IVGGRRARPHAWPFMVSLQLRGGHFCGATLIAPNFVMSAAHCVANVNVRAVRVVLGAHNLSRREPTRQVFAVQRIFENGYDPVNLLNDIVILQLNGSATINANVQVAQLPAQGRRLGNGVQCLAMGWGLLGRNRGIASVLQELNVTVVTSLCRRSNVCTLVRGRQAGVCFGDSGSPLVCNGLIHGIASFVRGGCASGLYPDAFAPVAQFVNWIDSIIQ
Kind of experiment: HNE enzyme assay (human neutrophil elastase enzyme activity assay). It counts as biochemical. As to conditions: human leukocyte elastase 0.00072 U/mL; substrate MeOSuc-Ala-Ala-Pro-Val-AMC 100 μM; 25° C. for 30 minutes; at least two separate experiments; read-out: HNE inhibition (HNE enzyme inhibition, IC50 values). Here is the method: Compounds of the present invention were tested for potency in a human neutrophil elastase (HNE) enzyme activity assay.
Assays were performed in 96-well plates in a total assay volume of 100 μL. The final concentration of elastase enzyme (human leukocyte elastase, Sigma E8140) was 0.00072 U/mL. The peptide substrate (MeOSuc-Ala-Ala-Pro-Val-AMC, Calbiochem #324740) was used at a final concentration of 100 μM. The final concentration of DMSO was 1% in the assay buffer (0.05M Tris.HCl, 0.1M NaCl, 0.1M CaCl2, 0.0005% brij-35, pH 7.5). The enzymatic reaction was started by addition of the enzyme and incubated at 25° C. for 30 minutes. After incubation, the reaction was stopped by addition of soybean trypsin inhibitor (Sigma T9003) at a final concentration of 50 μg/well. Fluorescence was measured using a Molecular Devices fluorescence plate reader using 380 nm excitation and 460 nm emission wavelengths.
A dose response to each compound was performed and the effect of compound in each experiment was expressed as a percentage inhibition of the control enzyme fluorescence. Dose response curves were plotted and compound potency (IC50) was determined. Compounds were tested in at least two separate experiments.

Turning to `C[C@H](NC(=O)c1c(-c2ccnn2-c2ccc(C#N)cc2)n(C)n(-c2cccc(C(F)(F)F)c2)c1=O)C(=O)N1CCC([N+](C)(C)Cc2ccccc2)CC1` [Example 35, Benzyl-[1-((S)-2-{[2′-(4-cyano-phenyl)-2-methyl-5-oxo-1-(3-trifluoromethyl-phenyl)-2,5-dihydro-1H,2′H-[3,3′]bipyrazolyl-4-carbonyl]-amino}-propionyl)-piperidin-4-yl]-dimethyl-ammonium bromide], the IC50 (in general, the concentration that gives 50% inhibition) was less than 1 nM. Consider `C[C@H](NC(=O)c1c(-c2ccnn2-c2ccc(C#N)cc2)n(C)n(-c2cccc(C(F)(F)F)c2)c1=O)C(=O)N(C)CC1CC[N+](C)(C)CC1` [Example 36, 4-{[((S)-2-{[2′-(4-Cyano-phenyl)-2-methyl-5-oxo-1-(3-trifluoromethyl-phenyl)-2,5-dihydro-1H,2′H-[3,3′]bipyrazolyl-4-carbonyl]-amino}-propionyl)-methyl-amino]-methyl}-1,1-dimethyl-piperidinium benzene sulphonate], for which the IC50 was less than 1 nM. The same measure for `C[C@H](NC(=O)c1c(-c2ccnn2-c2ccc(C#N)cc2)n(C)n(-c2cccc(C(F)(F)F)c2)c1=O)c1nnc(C[N+](C)(C)C)o1` [Example 37, [5-((S)-1-{[2′-(4-Cyano-phenyl)-2-methyl-5-oxo-1-(3-trifluoromethyl-phenyl)-2,5-dihydro-1H,2′H-[3,3′]bipyrazolyl-4-carbonyl]-amino}-ethyl)-[1,3,4]oxadiazol-2-ylmethyl]-trimethyl-ammonium benzene sulphonate]: less than 1 nM; for `C[C@H](NC(=O)c1c(-c2ccnn2-c2ccc(C#N)cc2)n(C)n(-c2cccc(C(F)(F)F)c2)c1=O)C(=O)OCC1CC[N+](C)(C)CC1` [Example 38, 4-((S)-2-{[2′-(4-Cyano-phenyl)-2-methyl-5-oxo-1-(3-trifluoromethyl-phenyl)-2,5-dihydro-1H,2′H-[3,3′]bipyrazolyl-4-carbonyl]-amino}-propionyloxymethyl)-1,1-dimethyl-piperidinium benzene sulphonate]: less than 1 nM. For `Cn1c(-c2ccnn2-c2ccc(C#N)cc2)c(C(=O)NC2CCN(C(=O)C3CC[N+](C)(C)CC3)CC2)c(=O)n1-c1cccc(C(F)(F)F)c1` [Example 39, 4-(4-{[2′-(4-Cyano-phenyl)-2-methyl-5-oxo-1-(3-trifluoromethyl-phenyl)-2,5-dihydro-1H,2′H-[3,3′]bipyrazolyl-4-carbonyl]-amino}-piperidine-1-carbonyl)-1,1-dimethyl-piperidinium benzene sulphonate], the IC50 is less than 1 nM. Take `CN(CC1CC[N+](C)(C)CC1)C(=O)C(C)(C)NC(=O)c1c(-c2ccnn2-c2ccc(C#N)cc2)n(C)n(-c2cccc(C(F)(F)F)c2)c1=O` [Example 40, 4-{[(2-{[2′-(4-Cyano-phenyl)-2-methyl-5-oxo-1-(3-trifluoromethyl-phenyl)-2,5-dihydro-1H,2′H-[3,3′]bipyrazolyl-4-carbonyl]-amino}-2-methyl-propionyl)-methyl-amino]-methyl}-1,1-dimethyl-piperidinium benzene sulphonate]: the IC50 was less than 1 nM. Take `C[C@H](NC(=O)c1c(-c2ccnn2-c2ccc(C#N)cc2)n(C)n(-c2cccc(C(F)(F)F)c2)c1=O)C(=O)N1CCC([N+](C)(C)C)CC1` [Example 41, [1-((S)-2-{[2′-(4-Cyano-phenyl)-2-methyl-5-oxo-1-(3-trifluoromethyl-phenyl)-2,5-dihydro-1H,2′H-[3,3′]bipyrazolyl-4-carbonyl]-amino}-propionyl)-piperidin-4-yl]-trimethyl-ammonium benzene sulphonate]: the IC50 was less than 1 nM. `Cn1c(-c2ccnn2-c2ccc(C#N)cc2)c(C(=O)N[C@H]2CC[C@H](C(=O)NCC[N+](C)(C)C)CC2)c(=O)n1-c1cccc(C(F)(F)F)c1` [Example 42, {2-[(Trans-4-{[2′-(4-cyano-phenyl)-2-methyl-5-oxo-1-(3-trifluoromethyl-phenyl)-2,5-dihydro-1H,2′H-[3,3′]bipyrazolyl-4-carbonyl]-amino}-cyclohexanecarbonyl)-amino]-ethyl}-trimethyl-ammonium benzene sulphonate]: the IC50 was less than 1 nM. Turning to `Cn1c(-c2ccnn2-c2ccc(C#N)cc2)c(C(=O)NC2CCN(C(=O)C[N+](C)(C)Cc3ccccc3)CC2)c(=O)n1-c1cccc(C(F)(F)F)c1` [Example 43, Benzyl-[2-(4-{[2′-(4-cyano-phenyl)-2-methyl-5-oxo-1-(3-trifluoromethyl-phenyl)-2,5-dihydro-1H,2′H-[3,3′]bipyrazolyl-4-carbonyl]-amino}-piperidin-1-yl)-2-oxo-ethyl]-dimethyl-ammonium bromide], the IC50 was less than 1 nM. As for `C[C@H](NC(=O)c1c(-c2ccnn2-c2ccc(C#N)cc2)n(C)n(-c2cccc(C(F)(F)F)c2)c1=O)C(=O)N(C)CC[N+](C)(C)C` [Example 44, {2-[((S)-2-{[2′-(4-Cyano-phenyl)-2-methyl-5-oxo-1-(3-trifluoromethyl-phenyl)-2,5-dihydro-1H,2′H-[3,3′]bipyrazolyl-4-carbonyl]-amino}-propionyl)-methyl-amino]-ethyl}-trimethyl-ammonium benzene sulphonate], the IC50 is less than 1 nM. Regarding `Cn1c(-c2ccnn2-c2ccc(C#N)cc2)c(C(=O)N[C@H]2CC[C@H](NC(=O)C[N+](C)(C)C)CC2)c(=O)n1-c1cccc(C(F)(F)F)c1` [Example 45, [(Trans-4-{[2′-(4-cyano-phenyl)-2-methyl-5-oxo-1-(3-trifluoromethyl-phenyl)-2,5-dihydro-1H,2′H-[3,3′]bipyrazolyl-4-carbonyl]-amino}-cyclohexylcarbamoyl)-methyl]-trimethyl-ammonium benzene sulphonate], the concentration for half-maximal inhibition (IC50) was less than 1 nM.

On to `Cc1cc(C[N+](C)(C)C[C@H]2CC[C@H](NC(=O)c3c(-c4ccnn4-c4ccc(C#N)cc4)n(C)n(-c4cccc(C(F)(F)F)c4)c3=O)CC2)n(C)n1` [Example 46, (Trans-4-{[2′-(4-cyano-phenyl)-2-methyl-5-oxo-1-(3-trifluoromethyl-phenyl)-2,5-dihydro-1H,2′H-[3,3′]bipyrazolyl-4-carbonyl]-amino}-cyclohexylmethyl)-(2,5-dimethyl-2H-pyrazol-3-ylmethyl)-dimethyl-ammonium bromide], for which the IC50 is less than 1 nM. In the case of `Cc1cc(C[N+](C)(C)C[C@H]2CC[C@H](NC(=O)c3c(-c4ccnn4-c4ccc(C#N)cc4)n(C)n(-c4cccc(C(F)(F)F)c4)c3=O)CC2)no1` [Example 47, (Trans-4-{[2′-(4-cyano-phenyl)-2-methyl-5-oxo-1-(3-trifluoromethyl-phenyl)-2,5-dihydro-1H,2′H-[3,3′]bipyrazolyl-4-carbonyl]-amino}-cyclohexylmethyl)-dimethyl-(5-methyl-isoxazol-3-ylmethyl)-ammonium chloride], the IC50 was less than 1 nM. With `Cn1c(-c2ccnn2-c2ccc(C#N)cc2)c(C(=O)NC(C)(C)c2ncc(C[N+](C)(C)C)o2)c(=O)n1-c1cccc(C(F)(F)F)c1` [Example 48, [2-(1-{[2′-(4-Cyano-phenyl)-2-methyl-5-oxo-1-(3-trifluoromethyl-phenyl)-2,5-dihydro-1H,2′H-[3,3′]bipyrazolyl-4-carbonyl]-amino}-1-methyl-ethyl)-oxazol-5-ylmethyl]-trimethyl-ammonium benzene sulphonate], the half-maximal inhibitory concentration (IC50) was less than 1 nM.
